pIC50: −log10 of the molar value.
Assays:
[1] = target: T1, cloned human 5-HT2 receptor (Homo sapiens, UniProt P28223); format: binding; conditions: cells containing cloned human 5-HT2 receptor; performed in triplicate
T1 construct: expressed in transfected cells

rat 5-HT2 receptor = target: T2, rat 5-HT2 receptor (Rattus norvegicus, UniProt P14842); format: binding; conditions: brain tissue of male Sprague-Dawley rats; performed in triplicate
T2 construct: from tissue; host or cells: brain tissue of male Sprague-Dawley rats
Source text: This is quite surprising in light of the N-substituted ergolines having a much greater affinity for the 5-HT2 receptors in rats compared to the corresponding N-unsubstituted ergolines.

T2 sequence (P14842 whole entry): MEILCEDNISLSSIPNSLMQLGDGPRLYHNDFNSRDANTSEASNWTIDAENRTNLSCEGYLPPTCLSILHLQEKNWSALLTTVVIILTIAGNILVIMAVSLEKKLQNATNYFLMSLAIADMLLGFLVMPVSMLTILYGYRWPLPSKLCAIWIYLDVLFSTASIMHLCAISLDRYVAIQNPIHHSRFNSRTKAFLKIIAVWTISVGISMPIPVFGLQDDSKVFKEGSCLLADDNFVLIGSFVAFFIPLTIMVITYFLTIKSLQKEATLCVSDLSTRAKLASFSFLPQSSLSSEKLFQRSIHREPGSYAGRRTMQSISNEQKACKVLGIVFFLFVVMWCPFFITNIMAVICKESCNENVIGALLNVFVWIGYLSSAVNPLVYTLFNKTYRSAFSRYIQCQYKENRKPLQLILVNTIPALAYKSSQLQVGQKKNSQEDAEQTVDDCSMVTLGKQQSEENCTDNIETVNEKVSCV
T1 sequence (P28223 whole entry): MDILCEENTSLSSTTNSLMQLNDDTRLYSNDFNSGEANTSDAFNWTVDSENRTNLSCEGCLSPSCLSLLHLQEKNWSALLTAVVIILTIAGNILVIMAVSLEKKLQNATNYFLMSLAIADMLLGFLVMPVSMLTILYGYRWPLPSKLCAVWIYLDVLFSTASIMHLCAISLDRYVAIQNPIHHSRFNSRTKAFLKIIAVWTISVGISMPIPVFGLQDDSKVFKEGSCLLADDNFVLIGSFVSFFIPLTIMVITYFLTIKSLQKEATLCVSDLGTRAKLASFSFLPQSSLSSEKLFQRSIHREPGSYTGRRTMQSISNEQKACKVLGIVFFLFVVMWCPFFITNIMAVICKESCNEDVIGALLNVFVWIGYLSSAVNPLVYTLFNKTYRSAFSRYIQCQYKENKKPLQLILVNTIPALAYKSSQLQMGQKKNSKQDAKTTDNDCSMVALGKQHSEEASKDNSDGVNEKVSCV

CC(C)n1cc2c3c(cccc31)C1CC(C(=O)NC3CC3O)CN(C)C1C2 (centres unmarked) [drawing 3 NH 2-hydroxycyclopropyl]
pIC50 [1]: 7.56 | pIC50 (rat 5-HT2 receptor): 8.24

— US5674875A, “Method of blocking human 5-hydroxytryptamine-2 receptors” (priority 1995, dated 1997)
